The test system of data set [1] is iron-overloaded rat model. As to the kind of experiment: Level of iron in blood and other tissues determined by AAS. Conditions: (SD), n = 8. The format is in vivo, Wistar rats. On the procedure: (§1) Ethical approval of the study protocol was obtained from the Institutional Review Board at the University of Jordan (Approval No. 47–2022) on 17th May 2022 (document No. 19/2022/289). Throughout the study, all animals were housed, fed, and treated in accordance with The University of Jordan ethical guidelines for animal protection. The animal house of the University of Jordan, which is equipped with proper ventilation and temperature control (25 ± 4°C) systems, was utilized for the study. Each animal was placed in a separate standard cage. Sixteen male Wistar rats (6 weeks old, average weight 220 ± 10 g) were subjected to an iron-enriched diet containing 2.5% carbonyl iron according to Ackerman et al. for 6 weeks. Another group of eight rats (control group) was subjected to an ordinary pellet diet for the same period. The 16 animals with iron fortified diets were then separated into two groups of eight: the DFX group which received DFX alone and the DFX-CP group which received DFX plus CP, for 6 days. Drugs were given orally through proper mixing with food so that on average, each animal would ingest 30 mg/kg DFX daily incorporated within 15 gm of dried food. For the DFX-CP group, the 15 g dried food contained CP equivalent to 30 mg/kg of animal weight. Blood samples were collected from animals using the orbital venous plexus bleeding method with the aid of ether anesthesia in special EDTA tubes on days 1, 3, and 6 after initiation of the drug treatment. Blood samples were centrifuged, and plasma was collected in Eppendorf tubes and kept at −80°C until time of analysis for DFX. On the sixth day of the treatment, animals were sacrificed by cervical dislocation with the aid of mild anesthesia. Liver, heart, kidney, spleen, and the whole gastrointestinal tract (GIT) of all animals were collected and immediately stored in 10% formalin solution for further assessment.
Accurately weighed samples of the tissues to be determined (90–120 mg for liver, and 50–80 mg for heart and spleen) were digested in 1.5 mL of concentrated H2SO4 at 60°C for two days. Samples were vortex mixed and initially diluted 12 times using 2M HCl and filtered using a 0.45 μm PTFE syringe filters. Further dilutions were made if necessary and as appropriate upon sample measurement. Samples were read on Aurora AI1200 atomic absorption spectrophotometer at the specific wavelength of iron. FeCl3 standard solution 1000 μg/mL (Scharlau, Spain) was used to prepare calibration curve solutions. Proper blank samples were prepared along with the calibration curve of standard iron solution. Linearity was established in the range 0.1–8 µg/mL, with a linearity coefficient > 0.99. A typical calibration equation was […]. For statistical analysis, the potential existence of a significant difference between the averages of two groups, a t-test was employed using GraphPad software.

Data set [2] is described as follows: Level of DFX in plasma of iron-overloaded rats (HPLC). The class given is in vivo. The note with it: male, Wistar, rat, (SD), N = 8. The procedure: as §1, with “Liver, heart, kidney, spleen, and the whole gastrointestinal tract (GIT) of all animals were collected and immediately stored in 10% formalin solution for further assessment.” left out
DFX was determined in plasma and GIT content using a slightly modified HPLC method from that employed in the solubility studies. […]
The method was properly validated for selectivity, precision, accuracy, and linearity. […] However, CP could not be determined by this method as it was coeluted early with other components of the plasma. […]

Details of data set [3]: method as in PMID 10508341, doi:10.1002/ejic.200400363. Conditions: practically measured; cited from earlier work.
A short description of data set [4]: Apparent octanol/H2O partition coefficient. The class given is physicochemical. The note with it: (±SD) in brackets, n = 3. The procedure:
(§2) Excess solid of each compound to be tested was added to 6 mL of either phosphate buffer (pH 6.8), acetate buffer (pH 4.5), or 0.1 M HCl and left on a shaker water bath (37°C) for 24 h. One mL was centrifuged for 10 min, and 100 μL of the supernatant was properly diluted with the mobile phase (1:4) before being injected onto HPLC. For determination of octanol/H2O PC, 0.6 mL of the supernatant solution was transferred to a new tube containing 2 mL of octanol. Tubes containing the two layers of octanol and aqueous phase were kept on shaker water bath (37°C) for 24 h. Aliquots of aqueous layer were properly diluted with the mobile phase before being injected onto HPLC. The concentration of the drug in octanol layer was calculated by difference.

Data set [5] has as its system iron-overloaded rat model. The data set is described as follows: Histological assessment of organs (H&E and Pearl's stain for iron deposits). The class given is in vivo, Wistar rats. The procedure: as §1, with “Blood samples were collected from animals using the orbital venous plexus bleeding method with the aid of ether anesthesia in special EDTA tubes on days 1, 3, and 6 after initiation of the drug treatment. Blood samples were centrifuged, and plasma was collected in Eppendorf tubes and kept at −80°C until time of analysis for DFX. On the sixth day of the treatment, animals were sacrificed by cervical dislocation with the aid of mild anesthesia. Liver, heart, kidney, spleen, and the whole gastrointestinal tract (GIT) of all animals were collected and immediately stored in 10% formalin solution for further assessment.” left out

Data set [6] can be described thus: Saturation solubility, shake-flask with HPLC. The class given is physicochemical. Conditions: (±SD) in brackets, n = 3. On the procedure: The molar ratio of association between iron and either of the drugs was determined by completely dissolving 2.7 mg of the metal complex products in 10 mL of a mixture of butanol, DMSO, and DMF (3:5:2). Solutions were then diluted twice in DMSO and five times in mobile phase before being injected into HPLC. The developed HPLC method was validated for this purpose and for the determination of solubility and partition coefficients (PCs). The optimum conditions developed comprised a phenyl column (4.6 mm ID; 150 mm·L; Thermo Scientific Hypersil) with a mobile phase consisting of 34% acetonitrile in a 50 mM phosphate buffer. The mobile phase mixture contained 0.032% citric acid, 0.02% EDTA, 0.032% hydroxylamine HCl, and 0.07% trimethylamine, with the overall pH adjusted to 3.7. The mobile phase was delivered isocratically at a flow rate of 1.2 mL/min, and chromatograms monitored at 290 nm.
as §2

Details of data set [7]: method as in PMID 10508341, doi:10.1002/ejic.200400363. The note with it: cited from earlier work.

This is an account of results in publication PMC11623990, “Deferasirox and Ciprofloxacin: Potential Ternary Complex Formation With Ferric Iron, Pharmacodynamic, and Pharmacokinetic Interactions” (The Scientific World Journal, 2024).

A word on the solubility: it is how much of the substance goes into solution per volume. A higher solubility goes with a readily soluble substance.

Each structure is given as a SMILES string. Values after ≈ are worked out from the molar mass of the structure shown.

`O=C(O)c1ccc(-n2nc(-c3ccccc3O)nc2-c2ccccc2O)cc1` [DFX, Deferasirox]: the “Content of iron in dried tissue” value in data set [1] (dried blood, 3 days after initiation of chelation therapy) is listed as 4.73 (0.2) mg/100g of tissue; in data set [1] (dried blood, 6 days after initiation of chelation therapy), 4.94 (0.2) mg/100g of tissue; in data set [1] (heart, after 6 days of treatment), 50.3 (2.7) mg/100g of tissue; in data set [1] (liver, after 6 days of treatment) it was 162.6 (10.1) mg/100g of tissue; in data set [1] (spleen, after 6 days of treatment), 168.8 (9.8) mg/100g of tissue. This molecule showed a concentration at 1 day in data set [2] (1 day after start of drugs in food (30 mg/kg daily oral)) of 1200 ng/mL. Further, the concentration at 3 day in data set [2] (3 days after start of drugs in food (30 mg/kg daily oral)) is 10700 ng/mL. The molecule further gave a concentration at 6 day in data set [2] (6 days after start of drugs in food (30 mg/kg daily oral)) of 9700 ng/mL. Also, the “Formation constants of DFX to Fe^3+” value in data set [3] is 10^37-10^38. The Apparent partition coefficient is on record as 2.1 (5.7) in data set [4] (pH 4.5, 37°C) and 7.9 (1.11) in data set [4] (pH 6.8, 37°C). Besides, the “Iron deposition in spleen tissue (Pearl's stain)” value in data set [5] (compared with the combined treatment group and the control group, seen in six out of eight animals) is on record as “clearly higher levels of deposited iron”. Also, in data set [5] (compared with the combined treatment group, seen in six of eight animals), the “Iron deposition in liver tissue (Pearl's stain)” value is given as “higher level of iron deposition”. Besides, the solubility at 24 h worked out at 9.9 µg/mL (≈ 26.5 µM) in data set [6] (0.1 M HCl, pH 1.2, pH 1.2 (0.1 M HCl), 37°C); 19.1 µg/mL (≈ 51.2 µM) in data set [6] (acetate buffer, pH 4.5, pH 4.5 acetate buffer, 37°C); 140 µg/mL (≈ 375 µM) in data set [6] (phosphate buffer, 37 °C, pH 6.8, aqueous buffer, thermodynamic from solid, pH 6.8 phosphate buffer). In addition, in data set [6] (pH 6.8 phosphate buffer, 37°C, 24 h), the Solubility is recorded as 140.8 (1.9) μg/mL. In addition, the “Affinity of DFX to Fe^2+” value in data set [7] was “very low affinity”.
